Key:
TSLP = test: RT-PCR of EGR-1 target gene mRNA in TNFα-stimulated HaCaT cells: TSLP; type: cell-based, human; details: 0, 5, 10, and 20 µM for 30 minutes, then TNFα 10 ng/mL for 12 hours, FIG. 14
Experimental: (§1) To determine whether the compounds of the present invention (Compounds 21, 23, and 25) inhibit expression of TSLP, IL-1β, and IL-6 genes, which are EGR-1 target genes playing a key role in atopic dermatitis exacerbation, the inhibitory effect of the compounds on mRNA expression of an EGR-1 target gene TSLP was evaluated by reverse transcription-polymerase chain reaction (RT-PCR) in HaCaT keratinocyte cells.
(§2) Specifically, HaCaT keratinocyte cells (purchased from Cell Lines Service, Eppelheim, Germany) were passaged at a seeding density of 1x10^6 cells per 100 mm cell culture dish in Dulbecco's modified Eagle's medium (Invitrogen Life Technologies) containing 10% fetal bovine serum (Invitrogen Life Technologies) and antibiotic-antifungal agent mix solution (Invitrogen Life Technologies), once every two days, and cultured at 37 °C in a 5% CO2 incubator.
(§3) HaCaT cells were treated with the compounds of the present invention (Compound 21, Compound 23, and Compound 25) at concentrations of 0, 5, 10, and 20 µM, respectively, for 30 minutes, followed by treatment with TNFα in a concentration of 10 ng/mL for 12 hours, after which the cells were harvested. Total RNA was extracted using TRIzol RNA isolation reagents (TRIzol Life Technologies Korea). A total of 0.5 µg of total RNA was reverse transcribed to synthesize complementary DNA (cDNA) according to the method recommended by the manufacturer using an iScript cDNA synthesis kit (Bio-Rad, Hercules, Calif., U.S.A.). PCR was performed using 0.0125 µg of double-stranded cDNA.
(§4) Glyceraldehyde-3-phosphate dehydrogenase (GAPDH), a housekeeping gene, was used as the control group. The double-stranded cDNA was denatured at 95 °C for 5 minutes and then subjected to cycles of reaction at 94 °C for 1 minute, 65 °C for 2 minutes, and 70 °C for 1 minute, repeated 30 times. The final product of PCR was electrophoresed on 1% agarose gel, stained with ethidium bromide (EtBr), and confirmed.

IL-1β = test: RT-PCR of EGR-1 target gene mRNA in TNFα-stimulated HaCaT cells: IL-1β; type: cell-based, human; details: 0, 5, 10, and 20 µM for 30 minutes, then TNFα 10 ng/mL for 12 hours, FIG. 14
Experimental: as §1, §2, §3, §4

IL-6 = test: RT-PCR of EGR-1 target gene mRNA in TNFα-stimulated HaCaT cells: IL-6; type: cell-based, human; details: 0, 5, 10, and 20 µM for 30 minutes, then TNFα 10 ng/mL for 12 hours, FIG. 14
Experimental: as §1, §2, §3, §4

[1] = system: animal model of atopic dermatitis; test: DNCB-induced animal model of atopic dermatitis, topical application; type: in vivo, BALB/c mice; details: 0.1% applied to ear; for epidermal thickness / dermal thickness: day 22, H&E staining; for epidermal thickness: normal 24.47±2.353, DNCB only 37.27±4.393; for dermal thickness: normal 143.2±19.61, DNCB only 197.5±17.83; for macroscopic skin condition: day 22, FIG. 15B; for expression of filaggrin / expression of TSLP: immunofluorescence of skin tissue; for expression of filaggrin: FIG. 17B; for expression of TSLP: compared to positive control group, FIG. 17A; for expression of MPO (neutrophil marker) / expression of F4/80 (macrophage marker): immunohistochemistry; for expression of MPO (neutrophil marker): FIG. 16C; for expression of F4/80 (macrophage marker): FIG. 16D; for mast cell infiltration / number of mast cells infiltrated: toluidine blue staining; for mast cell infiltration: compared to the positive control group, FIG. 16A; for number of mast cells infiltrated: normal 11±3, DNCB 38±6
EGR-1 [2] = target: T1, EGR-1 (Homo sapiens, UniProt P18146); test: EGR-1 DNA binding activity assay (EDBA); parameters: made in house; details: EGR-1 DNA binding inhibitory activity; EGR-1 overexpressing cell lysate; absorbance at 450 nm; compound concentration not given
In short: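 Compound pre-incubated 30 min at room temperature with EGR-1-overexpressing cell lysate (10 mM Tris pH 7.5, 50 mM KCl, 2% BSA, 8% glycerol), then 1 h on avidin-immobilised biotin-EBS duplex DNA. Bound EGR-1 detected by antibody ELISA with HRP/TMB at 450 nm; % inhibition versus lysate-only wells.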

EGR-1 [3] = target: T1, EGR-1; test: Electrophoretic mobility shift assay (EMSA) of EGR-1 DNA binding; parameters: made in house; host or cells: Sf21 insect cells (crude cell extract); details: EGR-1 overexpressing Sf21 cell extract, biotin-labeled probe; FIG. 13
Experimental: When a nucleic acid and a protein are bound to each other, the complex of the nucleic acid and the protein moves more slowly than the nucleic acid alone, so that in an EMSA, a band of the nucleic acid bound to the protein appears higher than a band of only the nucleic acid.
In detail, the protein-DNA binding was analyzed by purchasing a LightShift Chemiluminescence EMSA kit (ThermoFisher Scientific, Waltham, MA, USA). The probe sequence for EGR-1 was synthesized by Macrogen company (Seoul, Korea) by ordering a deoxynucleotide labeled with biotin at the EGR-1 binding sequence (5'-biotin-AGAGTGTGTCTCCTTCGCACACATC-3'). The EGR-1 protein used in the experiment was an Sf21 insect cell extract overexpressing human EGR-1 protein as described in Yeo et al. [Journal of Investigative Dermatology 2021; 141:1851-1855]. Wild-type Sf21 cell extract was used as a negative control. After reacting 3 µg of EGR-1 overexpressing Sf21 cell extract, 1 µl of the compound of the present invention at a concentration of 20 mM, 50 fmol of the biotin-labeled EGR-1 binding deoxyoligonucleotide probe, and 1 µg poly(dI-dC) (Amersham Pharmacia Biotech Inc) for 20 minutes, electrophoresis was performed on a 6% non-denaturing polyacrylamide gel. The electrophoresed sample was transferred to a nylon membrane (Immobilon-Ny+ Transfer membrane, Millipore) and soaked in 5% skim milk solution for 30 minutes. Then, horseradish peroxidase-conjugated streptavidin was added and reacted for 15 minutes, and after washing unbound proteins from the membrane, the EGR-1-DNA complex was detected on X-ray film using an enhanced chemiluminescence (ECL) detection system (ThermoFisher Scientific). The intensity of the EGR-1-DNA complex band was analyzed using the ImageJ program (National Institute of Health, USA), and the intensity of the sample without the compound was set to 100%, and relative intensities were measured.

T1 sequence (P18146 whole entry): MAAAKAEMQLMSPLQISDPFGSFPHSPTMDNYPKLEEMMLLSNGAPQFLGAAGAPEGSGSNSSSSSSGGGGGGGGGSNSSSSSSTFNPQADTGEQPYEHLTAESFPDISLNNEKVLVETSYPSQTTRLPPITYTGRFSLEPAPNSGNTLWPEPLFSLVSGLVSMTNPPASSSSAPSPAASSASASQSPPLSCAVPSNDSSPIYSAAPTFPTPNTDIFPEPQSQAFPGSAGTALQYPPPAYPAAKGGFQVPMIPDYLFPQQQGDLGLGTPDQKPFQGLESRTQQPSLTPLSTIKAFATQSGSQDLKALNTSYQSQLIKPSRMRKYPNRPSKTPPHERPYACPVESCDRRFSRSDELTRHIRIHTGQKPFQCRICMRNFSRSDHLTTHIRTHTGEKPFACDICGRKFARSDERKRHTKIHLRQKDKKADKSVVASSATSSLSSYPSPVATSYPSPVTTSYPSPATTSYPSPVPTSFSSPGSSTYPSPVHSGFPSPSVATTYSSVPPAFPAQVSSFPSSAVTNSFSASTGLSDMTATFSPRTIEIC

| Structure (SMILES) | expression level of TSLP mRNA (TSLP) | expression level of IL-1β mRNA (IL-1β) | expression level of IL-6 mRNA (IL-6) | epidermal thickness [1] [µm] | dermal thickness [1] [µm] | macroscopic skin condition [1] | expression of filaggrin [1] | expression of TSLP [1] | expression of MPO (neutrophil marker) [1] | expression of F4/80 (macrophage marker) [1] | mast cell infiltration [1] | number of mast cells infiltrated [1] [per 2.5 cm^2] | Inhibition Rate (%) (EGR-1 [2]) | DNA binding of EGR-1 (EGR-1-DNA complex band) (EGR-1 [3]) |
| --- | --- | --- | --- | --- | --- | --- | --- | --- | --- | --- | --- | --- | --- | --- |
| O=C1Nc2c(F)cccc2/C1=N/NC(=S)Nc1ccc(C(F)(F)F)cc1 [Compound 21, (Z)-2-(7-fluoro-2-oxoindolin-3-ylidene)-N-(4-(trifluoromethyl)phenyl)hydrazinethioamide] | decreased dose-dependently | decreased dose-dependently | decreased dose-dependently | 25.22±2.993 | 163.4±7.905 | significant improvement in skin condition | recovered to a level similar to normal tissue | significantly decreased | decreased similar to normal tissue | decreased similar to normal tissue | significantly reduced | 18±2 | 70.20 | inhibited DNA binding of EGR-1 in a concentration-dependent manner |
| COc1ccc2c(c1)NC(=O)/C2=N\NC(=S)Nc1cccc([N+](=O)[O-])c1 [Compound 23, (Z)-2-(6-methoxy-2-oxoindolin-3-ylidene)-N-(3-nitrophenyl)hydrazin-1-carbothioamide] | decreased dose-dependently | decreased dose-dependently | decreased dose-dependently | 22.92±3.617 | 147.5±8.302 | significant improvement in skin condition | recovered to a level similar to normal tissue | significantly decreased | decreased similar to normal tissue | decreased similar to normal tissue | significantly reduced | 19±5 | 67.63 | inhibited DNA binding of EGR-1 in a concentration-dependent manner |
| COc1ccc2c(c1)NC(=O)/C2=N\NC(=S)Nc1ccc(C#N)cc1 [Compound 25, (Z)-N-(4-cyanophenyl)-2-(6-methoxy-2-oxoindolin-3-ylidene)hydrazinethioamide] | decreased dose-dependently | decreased dose-dependently | decreased dose-dependently | 23.46±1.530 | 157.8±17.05 | significant improvement in skin condition | recovered to a level similar to normal tissue | significantly decreased | decreased similar to normal tissue | decreased similar to normal tissue | significantly reduced | 15±5 | 76.13 | inhibited DNA binding of EGR-1 in a concentration-dependent manner |

— patent publication EP4799619A1, “COMPOUND TARGETING EGR-1 AND USE THEREOF FOR TREATMENT OF ATOPIC DERMATITIS” (AgeraMedi, Inc., priority 2023, dated 2025)
